Measured values from patent US4220644A, “7-Acylamino-3-(substituted tetrazolyl thiomethyl) cephalosporins” (SmithKline Corporation, priority 1976, dated 1980).
Converted amounts (≈) assume the structure as drawn. Read-outs that look alike come from different tables or passages of the source.

How the values were obtained:
[1] = tested on: Kleb. pneumo. SK 4200; assay: MIC in vitro (Table 1), Kleb. pneumo. SK 4200; type: cell-based
Excerpt: (§1) Compound names corresponding to numbers are given in the experimental section. For comparative purposes, data for cephamandole, which is 7-mandelamido-3-(1-methyltetrazol-5-ylthiomethyl)-3-cephem-4-carboxylic acid, is also given in Tables 1 and 2.

[2] = tested on: Strep. Faecalis HH 34358; assay: MIC in vitro (Table 1), Strep. Faecalis HH 34358; type: cell-based; conditions: in vitro, Strep. Faecalis HH 34358
Excerpt: as §1

[3] = tested on: Salmonella ATCC 12176; assay: MIC in vitro (Table 1), Salmonella ATCC 12176; type: cell-based
Excerpt: as §1, with “The compounds of Formula I have antibacterial activity against both Gram-positive and Gram-negative organisms. […] Compound” for “Compound”

[4] = tested on: Shigella HH 117; assay: MIC in vitro (Table 1), Shigella HH 117; type: cell-based
Excerpt: as §1, with “The compounds of Formula I have antibacterial activity against both Gram-positive and Gram-negative organisms. […] Compound” for “Compound”

[5] = tested on: S. villaluz; assay: MIC in vitro (Table 1), S. villaluz; type: cell-based
Excerpt: as §1, with “The compounds of Formula I have antibacterial activity against both Gram-positive and Gram-negative organisms. […] Compound” for “Compound”

[6] = tested on: Serra. Marc. ATCC 13880; assay: MIC in vitro (Table 1), Serra. Marc. ATCC 13880; type: cell-based; conditions: in vitro, Serra. Marc. ATCC 13880
Excerpt: as §1

[7] = tested on: E. coli SK 12140; assay: MIC in vitro (Table 1), E. coli SK 12140; type: cell-based
Excerpt: as §1

[8] = tested on: E. coli 12140; assay: In vivo mouse protection (Table 2), E. coli 12140
Excerpt: as §1

[9] = tested on: Entero. aerog. ATCC 13048; assay: MIC in vitro (Table 1), Entero. aerog. ATCC 13048; type: cell-based
Excerpt: as §1

[10] = tested on: Kleb. pneumo. SK 1200; assay: MIC in vitro (Table 1), Kleb. pneumo. SK 1200; type: cell-based
Excerpt: as §1

[11] = tested on: Kleb. pneumo. 4200; assay: In vivo mouse protection (Table 2), Kleb. pneumo. 4200
Excerpt: as §1

[12] = tested on: S. aureus HH 127; assay: MIC in vitro (Table 1), S. aureus HH 127; type: cell-based; conditions: S. aureus HH 127
Excerpt: as §1

[13] = tested on: Proteus morgani 179; assay: MIC in vitro (Table 1), Proteus morgani 179; type: cell-based
Excerpt: as §1

[14] = tested on: E. coli HH 33779; assay: MIC in vitro (Table 1), E. coli HH 33779; type: cell-based
Excerpt: as §1

[15] = tested on: S. aureus SK 23390; assay: MIC in vitro (Table 1), S. aureus SK 23390; type: cell-based
Excerpt: as §1

[16] = tested on: Entero. cloacae HH 31254; assay: MIC in vitro (Table 1), Entero. cloacae HH 31254; type: cell-based
Excerpt: as §1

[17] = tested on: Pseudo. sp. HH 63; assay: MIC in vitro (Table 1), Pseudo. sp. HH 63; type: cell-based; conditions: in vitro, Pseudo. sp. HH 63; read-out: MIC
Excerpt: as §1, with “The compounds of Formula I have antibacterial activity against both Gram-positive and Gram-negative organisms. […] Compound” for “Compound”

[18] = in vitro, Kleb. pneumo. SK 4200, read-out: MIC
[19] = Enterococcus faecalis, read-out: MIC
[20] = Salmonella, ATCC12176, in vitro, read-out: MIC
[21] = Shigella, HH117, in vitro, read-out: MIC
[22] = Escherichia coli, SK12140, in vitro, read-out: MIC
[23] = Escherichia coli, 12140, po, E. coli 12140, p.o.
[24] = Escherichia coli, 12140, sc, E. coli 12140, s.c.
[25] = in vitro, Entero. aerog. ATCC 13048, read-out: MIC
[26] = Staphylococcus aureus, HH127, in vitro, read-out: MIC
[27] = Escherichia coli, HH33779, in vitro, E. coli HH 33779, read-out: MIC
[28] = Enterobacter cloacae, HH31254, in vitro, Entero. cloacae HH 31254, read-out: MIC
[29] = Escherichia coli, SK12140, in vitro

Compound | MIC [1, 18] [µg/mL] | MIC [2, 19] [µg/mL] | MIC [3, 20] [µg/mL] | MIC [4, 21] [µg/mL] | MIC ([5]; read-out: MIC) [µg/mL] | MIC ([6]; read-out: MIC) [µg/mL] | MIC [7, 22] [µg/mL] | ED50 [8, 23] [mg/kg] | ED50 [8, 24] [mg/kg] | MIC [9, 25] [µg/mL] | MIC [10] [µg/mL] | ED50 ([11]; po, Kleb. pneumo. 4200, p.o.) [mg/kg] | ED50 ([11]; sc, Kleb. pneumo. 4200, s.c.) [mg/kg] | MIC [12, 26] [µg/mL] | MIC ([13]; read-out: MIC) [µg/mL] | MIC [14, 27] [µg/mL] | MIC ([15]; Staphylococcus aureus, SK23390) [µg/mL] | MIC [16, 28] [µg/mL] | MIC [7, 29] [µg/mL] | MIC [1] [µg/mL] | further results
O=C(O)CCn1nnnc1SCC1=C(C(=O)O)N2C(=O)C(NC(=O)CSC(F)(F)F)[C@H]2SC1 (stereo partly drawn) [XV, 7-Trifluoromethylmercaptoacetamido-3-[1-(2-carboxyethyl)tetrazol-5-ylthiomethyl]-3-cephem-4-carboxylic acid] | 0.8 (≈ 1.51 µM) | 50 (≈ 94.6 µM) | 0.4 (≈ 0.757 µM) | 0.8 (≈ 1.51 µM) | 25 (≈ 47.3 µM) | 200 (≈ 378 µM) | 0.8 (≈ 1.51 µM) | > 50 | 1.56 | 6.3 (≈ 11.9 µM) | 0.4 (≈ 0.757 µM) | 46 | 1.12 | 1.6 (≈ 3.03 µM) | > 200 | 3.1 (≈ 5.87 µM) | 0.8 (≈ 1.51 µM) | 0.8 (≈ 1.51 µM) | – | – | –
NC(=O)Cn1nnnc1SCC1=C(C(=O)O)N2C(=O)C(NC(=O)CSC(F)(F)F)[C@H]2SC1 (stereo partly drawn) [XVII, 7-Trifluoromethylmercaptoacetamido-3-(1-carbamoylmethyltetrazol-5-ylthiomethyl)-3-cephem-4-carboxylic acid] | 0.8 (≈ 1.56 µM) | 25 (≈ 48.7 µM) | 0.4 (≈ 0.779 µM) | 0.2 (≈ 0.389 µM) | 12.5 (≈ 24.3 µM) | 100 (≈ 195 µM) | – | 6.25 | 0.28 | 1.6 (≈ 3.12 µM) | 0.4 (≈ 0.779 µM) | 15.5 | 0.78 | 0.4 (≈ 0.779 µM) | 200 (≈ 389 µM) | 3.1 (≈ 6.04 µM) | 0.4 (≈ 0.779 µM) | 0.8 (≈ 1.56 µM) | 0.4 (≈ 0.779 µM) | – | –
O=C(O)Cn1nnnc1SCC1=C(C(=O)O)N2C(=O)C(NC(=O)CSC(F)(F)F)[C@H]2SC1 (stereo partly drawn) [XVIII, 7-Trifluoromethylmercaptoacetamido-3-(1-carboxymethyltetrazol-5-ylthiomethyl)-3-cephem-4-carboxylic acid] | – | 100 (≈ 194 µM) | 0.8 (≈ 1.55 µM) | 3 (≈ 5.83 µM) | 100 (≈ 194 µM) | > 200 | 0.8 (≈ 1.55 µM) | – | 3.1 | 13 (≈ 25.3 µM) | 0.4 (≈ 0.777 µM) | – | 0.4 | 3 (≈ 5.83 µM) | 200 (≈ 389 µM) | 6 (≈ 11.7 µM) | – | 3 (≈ 5.83 µM) | – | 0.4 (≈ 0.777 µM) | MIC ([15]; Staphylococcus aureus, SK23390, in vitro, S. aureus SK 23390, read-out: MIC): 3 µg/mL (≈ 5.83 µM)
CNC(=O)Cn1nnnc1SCC1=C(C(=O)O)N2C(=O)C(NC(=O)[C@H](O)c3ccccc3)[C@H]2SC1 (stereo partly drawn) [III, 7-D-Mandelamido-3-(1-N-methylcarbamoylmethyltetrazol-5-ylthiomethyl)-3-cephem-4-carboxylic acid] | – | 25 (≈ 48.1 µM) | 0.8 (≈ 1.54 µM) | 3.1 (≈ 5.97 µM) | – | 25 (≈ 48.1 µM) | – | 34 | 1.56 | – | 3.1 (≈ 5.97 µM) | > 50 | 2.8 | 1.6 (≈ 3.08 µM) | – | – | 3.1 (≈ 5.97 µM) | – | 3.1 (≈ 5.97 µM) | 3.1 (≈ 5.97 µM) | MIC [17]: > 200 µg/mL; MIC [9]: 3.1 µg/mL (≈ 5.97 µM); MIC [13]: 3.1 µg/mL (≈ 5.97 µM); MIC ([14]; Escherichia coli, HH33779): 3.1 µg/mL (≈ 5.97 µM); MIC ([16]; Enterobacter cloacae, HH31254): 3.1 µg/mL (≈ 5.97 µM)
7-(α-Carboxythienylacetamido)-3-(1-carboxymethyltetrazol-5-ylthiomethyl)-3-cephem-4-carboxylic acid [XIX] | – | – | – | – | – | – | – | – | – | – | 6 | – | – | – | – | – | – | – | – | – | MIC ([1]; in vitro, Kleb. pneumo. SK 4200): 50 µg/mL; MIC [2]: 200 µg/mL; MIC ([3]; in vitro): 25 µg/mL; MIC ([4]; in vitro): 6 µg/mL; MIC [5]: 100 µg/mL; MIC [6]: 50 µg/mL; MIC ([7]; in vitro): 25 µg/mL; MIC ([9]; in vitro, Entero. aerog. ATCC 13048): 50 µg/mL; MIC ([12]; in vitro): 50 µg/mL; MIC [13]: 6 µg/mL; MIC ([14]; in vitro, E. coli HH 33779): 50 µg/mL; MIC ([15]; in vitro, S. aureus SK 23390): 50 µg/mL; MIC ([16]; in vitro, Entero. cloacae HH 31254): 50 µg/mL
